Reference: article PMC5218480 (PLoS ONE, 2017)

Tested on: MV-4-11 cells
Experiment: Gene expression microarray analysis (Affymetrix PrimeView) and GSEA
Type: cell-based, human
Design: RFU PODN (11730768_x_at) / Fold change /veh PODN (11730768_x_at) / RFU LINC00158 (11744669_a_at) / Fold change /veh LINC00158 (11744669_a_at) / RFU DUSP10 (11751237_a_at) / Fold change /veh DUSP10 (11751237_a_at) / RFU ID3 (11757404_x_at) / Fold change /veh ID3 (11757404_x_at) / RFU PLEKHG5 (11737974_s_at) / Fold change /veh PLEKHG5 (11737974_s_at) / RFU LRRC4B (11730491_at) / Fold change /veh LRRC4B (11730491_at) / RFU GIMAP4 (11747438_a_at) / Fold change /veh GIMAP4 (11747438_a_at) / RFU KRT8 (11758183_x_at) / Fold change /veh KRT8 (11758183_x_at) / RFU CNN1 (11734310_a_at) / Fold change /veh CNN1 (11734310_a_at) / RFU VPS37D (11726825_at) / Fold change /veh VPS37D (11726825_at) / RFU C10orf10 (11716522_x_at) / Fold change /veh C10orf10 (11716522_x_at) / RFU KIR2DL2 /// KIR2DL4 /// KIR2DL5A /// KIR2DL5B /// KIR2DS1 /// KIR2DS2 /// KIR2DS3 /// KIR2DS4 /// KIR3DL3 /// KIR3DL3 /// KIR3DS1 (11738374_at) / Fold change /veh KIR2DL2 /// KIR2DL4 /// KIR2DL5A /// KIR2DL5B /// KIR2DS1 /// KIR2DS2 /// KIR2DS3 /// KIR2DS4 /// KIR3DL3 /// KIR3DL3 /// KIR3DS1 (11738374_at) / RFU C1QL1 (11718748_at) / Fold change /veh C1QL1 (11718748_at) / RFU TMPRSS4 (11747572_a_at) / Fold change /veh TMPRSS4 (11747572_a_at) / RFU HAMP (11756126_x_at) / Fold change /veh HAMP (11756126_x_at) / RFU RNFT2 (11725882_a_at) / Fold change /veh RNFT2 (11725882_a_at) / RFU NR4A2 (11747474_a_at) / Fold change /veh NR4A2 (11747474_a_at) / RFU ABCC12 (11746883_a_at) / Fold change /veh ABCC12 (11746883_a_at) / RFU TMEM136 (11760407_x_at) / Fold change /veh TMEM136 (11760407_x_at) / RFU CLDN22 /// WWC2 (11732394_at) / Fold change /veh CLDN22 /// WWC2 (11732394_at) / RFU HLA-DPB1 (11760878_x_at) / Fold change /veh HLA-DPB1 (11760878_x_at) / RFU SPINT1 (11716480_a_at) / Fold change /veh SPINT1 (11716480_a_at) / RFU GAP43 (11754022_s_at) / Fold change /veh GAP43 (11754022_s_at) / RFU A4GNT (11735810_at) / Fold change /veh A4GNT (11735810_at) / RFU PRB3 (11715151_x_at) / Fold change /veh PRB3 (11715151_x_at) / RFU TUBB4B (11761932_at) / Fold change /veh TUBB4B (11761932_at) / RFU CAPN14 (11732068_a_at) / Fold change /veh CAPN14 (11732068_a_at) / RFU TMCC2 (11721928_a_at) / Fold change /veh TMCC2 (11721928_a_at) / RFU IRGQ (11745062_a_at) / Fold change /veh IRGQ (11745062_a_at) / RFU FAM174B (11720279_a_at) / Fold change /veh FAM174B (11720279_a_at) / RFU TMPRSS4 (11748680_a_at) / Fold change /veh TMPRSS4 (11748680_a_at) / RFU FAM212B (11763350_a_at) / Fold change /veh FAM212B (11763350_a_at) / RFU PLEKHG5 (11743358_a_at) / Fold change /veh PLEKHG5 (11743358_a_at) / RFU ZSCAN30 (11745921_a_at) / Fold change /veh ZSCAN30 (11745921_a_at) / RFU CMKLR1 (11741424_a_at) / Fold change /veh CMKLR1 (11741424_a_at) / RFU LOC101060620 /// MAPK8IP1 (11723275_at) / Fold change /veh LOC101060620 /// MAPK8IP1 (11723275_at) / RFU SPTSSB (11747773_x_at) / Fold change /veh SPTSSB (11747773_x_at) / RFU PRSS12 (11739890_at) / Fold change /veh PRSS12 (11739890_at) / RFU BIN1 (11741810_x_at) / Fold change /veh BIN1 (11741810_x_at) / RFU WNT11 (11732464_a_at) / Fold change /veh WNT11 (11732464_a_at) / RFU C10orf10 (11716521_a_at) / Fold change /veh C10orf10 (11716521_a_at) / RFU C5orf56 (11738089_at) / Fold change /veh C5orf56 (11738089_at) / RFU CYB561 (11721691_x_at) / Fold change /veh CYB561 (11721691_x_at) / RFU ANKRD19P (11752326_a_at) / Fold change /veh ANKRD19P (11752326_a_at) / RFU OR2T12 /// OR2T33 /// OR2T8 (11738714_s_at) / Fold change /veh OR2T12 /// OR2T33 /// OR2T8 (11738714_s_at) / RFU VCAN (11748164_a_at) / Fold change /veh VCAN (11748164_a_at) / RFU JSRP1 (11732532_at) / Fold change /veh JSRP1 (11732532_at) / RFU KRTAP10-11 (11738290_x_at) / Fold change /veh KRTAP10-11 (11738290_x_at) / RFU MYO3A (11730013_a_at) / Fold change /veh MYO3A (11730013_a_at) / RFU EBF3 (11725865_a_at) / Fold change /veh EBF3 (11725865_a_at) / RFU CAMK2N1 (11719241_x_at) / Fold change /veh CAMK2N1 (11719241_x_at) / RFU C5orf56 (11738088_a_at) / Fold change /veh C5orf56 (11738088_a_at) / RFU OLFML3 (11715873_a_at) / Fold change /veh OLFML3 (11715873_a_at) / RFU LOC100653217 /// NTM (11731650_a_at) / Fold change /veh LOC100653217 /// NTM (11731650_a_at) / RFU MAPK11 (11762145_a_at) / Fold change /veh MAPK11 (11762145_a_at) / RFU FIZ1 (11724087_x_at) / Fold change /veh FIZ1 (11724087_x_at) / RFU OASL (11726364_x_at) / Fold change /veh OASL (11726364_x_at) / RFU SOX15 (11748057_x_at) / Fold change /veh SOX15 (11748057_x_at) / RFU CD79A (11719716_a_at) / Fold change /veh CD79A (11719716_a_at) / RFU HIST1H1D (11736915_at) / Fold change /veh HIST1H1D (11736915_at) / RFU CASKIN2 (11723855_a_at) / Fold change /veh CASKIN2 (11723855_a_at) / RFU LOC730098 (11760151_x_at) / Fold change /veh LOC730098 (11760151_x_at) / RFU OR4N2 (11742367_at) / Fold change /veh OR4N2 (11742367_at) / RFU PRRT2 (11749266_a_at) / Fold change /veh PRRT2 (11749266_a_at) / RFU SNX32 (11753110_a_at) / Fold change /veh SNX32 (11753110_a_at) / RFU CDHR5 (11726645_a_at) / Fold change /veh CDHR5 (11726645_a_at) / RFU RCAN1 (11760418_a_at) / Fold change /veh RCAN1 (11760418_a_at) / RFU FAM167A (11723789_a_at) / Fold change /veh FAM167A (11723789_a_at) / RFU FAM26E (11764081_at) / Fold change /veh FAM26E (11764081_at) / RFU ISYNA1 (11749810_s_at) / Fold change /veh ISYNA1 (11749810_s_at) / RFU ACY1 (11761880_at) / Fold change /veh ACY1 (11761880_at) / RFU 11764098_at / Fold change /veh 11764098_at / RFU SAMD14 (11745864_x_at) / Fold change /veh SAMD14 (11745864_x_at) / RFU NPB (11741838_a_at) / Fold change /veh NPB (11741838_a_at) / RFU TMPRSS6 (11731388_a_at) / Fold change /veh TMPRSS6 (11731388_a_at) / RFU KRTAP10-2 (11738614_at) / Fold change /veh KRTAP10-2 (11738614_at) / RFU ARHGAP8 /// PRR5-ARHGAP8 (11727945_x_at) / Fold change /veh ARHGAP8 /// PRR5-ARHGAP8 (11727945_x_at) / RFU KRTAP5-7 /// NADSYN1 (11734609_at) / Fold change /veh KRTAP5-7 /// NADSYN1 (11734609_at) / RFU RASL12 (11751679_a_at) / Fold change /veh RASL12 (11751679_a_at) / RFU CDKN2B (11736163_a_at) / Fold change /veh CDKN2B (11736163_a_at) / RFU PRF1 (11729649_at) / Fold change /veh PRF1 (11729649_at) / RFU, ZNF638 /// ZNF638-IT1 / Fold change vs veh, ZNF638 /// ZNF638-IT1 / RFU, PANK3 / Fold change vs veh, PANK3 / RFU, SH3YL1 / Fold change vs veh, SH3YL1 / RFU, ZEB2 / Fold change vs veh, ZEB2 / RFU, NRIP1 / Fold change vs veh, NRIP1 / RFU, PTTG1IP / Fold change vs veh, PTTG1IP / RFU, CAPN2 / Fold change vs veh, CAPN2 / RFU, MED14 / Fold change vs veh, MED14 / RFU, SNORA58 / Fold change vs veh, SNORA58 / RFU, C1orf63 / Fold change vs veh, C1orf63 / RFU, LRRFIP1 / Fold change vs veh, LRRFIP1 / RFU, NDUFAF7 / Fold change vs veh, NDUFAF7 / RFU, SLC12A2 / Fold change vs veh, SLC12A2 / RFU, IBTK / Fold change vs veh, IBTK / RFU, ESF1 / Fold change vs veh, ESF1 / Fold change vs veh, TMEM50B / RFU, TAOK1 / Fold change vs veh, TAOK1 / RFU, ACBD3 / Fold change vs veh, ACBD3 / RFU, TMA16 / Fold change vs veh, TMA16 / RFU, RWDD3 / Fold change vs veh, RWDD3 / RFU, BCAT1 / Fold change vs veh, BCAT1 / RFU, EDEM3 / Fold change vs veh, EDEM3 / RFU, TMEM33 / Fold change vs veh, TMEM33 / RFU, WDR75 / Fold change vs veh, WDR75 / RFU, AHCTF1 / Fold change vs veh, AHCTF1 / RFU, TFRC / Fold change vs veh, TFRC / RFU, ZDHHC17 / Fold change vs veh, ZDHHC17 / RFU, NOM1 / Fold change vs veh, NOM1 / RFU, ARL8B / Fold change vs veh, ARL8B / RFU, ZBTB11 / Fold change vs veh, ZBTB11 / RFU, TAMM41 / Fold change vs veh, TAMM41 / RFU, KIAA1704 /// LOC100996395 / Fold change vs veh, KIAA1704 /// LOC100996395 / RFU, ING1 / Fold change vs veh, ING1 / RFU, TRMT61B / Fold change vs veh, TRMT61B / RFU, FUBP3 / Fold change vs veh, FUBP3 / RFU, TP53 / Fold change vs veh, TP53 / RFU, TNKS2 / Fold change vs veh, TNKS2 / RFU, ZFP14 / Fold change vs veh, ZFP14 / RFU, ACTR2 / Fold change vs veh, ACTR2 / RFU, PPP3R1 / Fold change vs veh, PPP3R1 / RFU, PIK3R1 / Fold change vs veh, PIK3R1 / RFU, HNRNPA1 / Fold change vs veh, HNRNPA1 / RFU, RNF170 / Fold change vs veh, RNF170 / RFU, ZNF28 / Fold change vs veh, ZNF28 / RFU, RNGTT / Fold change vs veh, RNGTT / RFU, OGT / Fold change vs veh, OGT / RFU, BRD1 / Fold change vs veh, BRD1 / RFU, MARS / Fold change vs veh, MARS / RFU, ZNF655 / Fold change vs veh, ZNF655 / RFU, FAHD1 / Fold change vs veh, FAHD1 / RFU, BDP1 / Fold change vs veh, BDP1 / RFU, LRRCC1 / Fold change vs veh, LRRCC1 / RFU, ARID1A / Fold change vs veh, ARID1A / RFU, ZNF146 / Fold change vs veh, ZNF146 / RFU, ZNF330 / Fold change vs veh, ZNF330 / RFU, GPN3 / Fold change vs veh, GPN3 / RFU, C9orf123 / Fold change vs veh, C9orf123 / RFU, N4BP2L2 / Fold change vs veh, N4BP2L2 / RFU, ARFIP1 / Fold change vs veh, ARFIP1 / RFU, FAM179B / Fold change vs veh, FAM179B / RFU, BCL10 / Fold change vs veh, BCL10 / RFU, UHRF1BP1L / Fold change vs veh, UHRF1BP1L / RFU, BET1 / Fold change vs veh, BET1 / RFU, CNOT2 / Fold change vs veh, CNOT2 / RFU, ZNF268 / Fold change vs veh, ZNF268 / Fold change vs veh, ZNF507 / RFU, DGCR2 / Fold change vs veh, DGCR2 / RFU, WDSUB1 / Fold change vs veh, WDSUB1 / Fold change vs veh, HSP90B1 /// MIR3652 / RFU, ADSS / Fold change vs veh, ADSS / RFU, GK / Fold change vs veh, GK / RFU, ZNF148 / Fold change vs veh, ZNF148 / RFU, TAF9 / Fold change vs veh, TAF9 / RFU, SLC1A5 / Fold change vs veh, SLC1A5 / RFU, SLMO2 / Fold change vs veh, SLMO2 / RFU, ABCC4 / Fold change vs veh, ABCC4 / RFU, LOC101060439 /// RAP1B / Fold change vs veh, LOC101060439 /// RAP1B / RFU, RFX7 / Fold change vs veh, RFX7 / RFU, GTPBP10 / Fold change vs veh, GTPBP10 / RFU, CNEP1R1 / Fold change vs veh, CNEP1R1 / RFU, BIVM-ERCC5 /// ERCC5 / Fold change vs veh, BIVM-ERCC5 /// ERCC5 / RFU, ILF3 / Fold change vs veh, ILF3 / RFU 11762660_at / Fold change /veh 11762660_at / RFU VCAN (11757783_s_at) / Fold change /veh VCAN (11757783_s_at) / RFU DDX43 (11728927_at) / Fold change /veh DDX43 (11728927_at) / RFU KRT8 (11758188_x_at) / Fold change /veh KRT8 (11758188_x_at) / RFU NKD1 (11759106_at) / Fold change /veh NKD1 (11759106_at) / RFU SRD5A1 (11742802_a_at) / Fold change /veh SRD5A1 (11742802_a_at) / RFU TPSAB1 /// TPSB2 (11721975_s_at) / Fold change /veh TPSAB1 /// TPSB2 (11721975_s_at) / RFU GSTM3 (11746129_a_at) / Fold change /veh GSTM3 (11746129_a_at) / RFU IL23R (11737362_x_at) / Fold change /veh IL23R (11737362_x_at) / RFU TMEM51 (11727254_a_at) / Fold change /veh TMEM51 (11727254_a_at) / RFU PIWIL2 (11732686_x_at) / Fold change /veh PIWIL2 (11732686_x_at) / RFU ORM1 (11744905_x_at) / Fold change /veh ORM1 (11744905_x_at) / RFU CCDC152 (11743942_at) / Fold change /veh CCDC152 (11743942_at) / RFU ECM1 (11717891_a_at) / Fold change /veh ECM1 (11717891_a_at) / RFU IL23R (11748794_a_at) / Fold change /veh IL23R (11748794_a_at) / RFU TNFAIP8L3 (11732012_x_at) / Fold change /veh TNFAIP8L3 (11732012_x_at) / RFU MBOAT4 (11741988_at) / Fold change /veh MBOAT4 (11741988_at) / RFU 11764193_at / Fold change /veh 11764193_at / RFU TMEM53 (11763286_at) / Fold change /veh TMEM53 (11763286_at) / RFU MAGEB2 (11727129_at) / Fold change /veh MAGEB2 (11727129_at) / RFU TMEM200A (11744735_a_at) / Fold change /veh TMEM200A (11744735_a_at) / RFU CCDC152 (11751479_a_at) / Fold change /veh CCDC152 (11751479_a_at) / RFU FAM211A (11726209_a_at) / Fold change /veh FAM211A (11726209_a_at) / RFU RGS16 (11746705_a_at) / Fold change /veh RGS16 (11746705_a_at) / RFU VCAN (11755009_s_at) / Fold change /veh VCAN (11755009_s_at) / RFU RHOB (11743442_s_at) / Fold change /veh RHOB (11743442_s_at) / RFU RGS16 (11720943_a_at) / Fold change /veh RGS16 (11720943_a_at) / RFU RGS16 (11720944_at) / Fold change /veh RGS16 (11720944_at) / RFU, VPS4B / Fold change vs veh, VPS4B / RFU, CREB1 / Fold change vs veh, CREB1 / RFU, DNAJC13 / Fold change vs veh, DNAJC13 / RFU, GNAQ / Fold change vs veh, GNAQ / RFU, CDK5R1 / Fold change vs veh, CDK5R1 / RFU, ZRANB3 / Fold change vs veh, ZRANB3 / RFU, CUL4A / Fold change vs veh, CUL4A / RFU, CCNY / Fold change vs veh, CCNY / RFU, UFL1 / Fold change vs veh, UFL1 / RFU, COG3 / Fold change vs veh, COG3 / RFU, DIAPH2 / Fold change vs veh, DIAPH2 / RFU, SKA2 / Fold change vs veh, SKA2 / RFU, AFF3 / Fold change vs veh, AFF3 / RFU, LMF1 / Fold change vs veh, LMF1 / RFU, IPO11 / Fold change vs veh, IPO11 / RFU, DFFB / Fold change vs veh, DFFB / RFU, FOXP1 / Fold change vs veh, FOXP1 / RFU, CARD8 / Fold change vs veh, CARD8 / RFU, STRN3 / Fold change vs veh, STRN3 / RFU, ADK / Fold change vs veh, ADK / RFU, RASSF2 / Fold change vs veh, RASSF2 / RFU, WIPF1 / Fold change vs veh, WIPF1 / RFU, LARP1B / Fold change vs veh, LARP1B / RFU, RASA1 / Fold change vs veh, RASA1 / RFU, RB1 / Fold change vs veh, RB1 / RFU, PPFIA1 / Fold change vs veh, PPFIA1 / RFU, MAT2A / Fold change vs veh, MAT2A / RFU, CCT5 / Fold change vs veh, CCT5 / RFU, WDR92 / Fold change vs veh, WDR92 / RFU, CUX1 / Fold change vs veh, CUX1 / RFU, TTC7A / Fold change vs veh, TTC7A / RFU, TMEM135 / Fold change vs veh, TMEM135 / RFU, DEPTOR / Fold change vs veh, DEPTOR / RFU, CPM / Fold change vs veh, CPM / RFU, DNAJB6 / Fold change vs veh, DNAJB6 / RFU, CACNA2D3 / Fold change vs veh, CACNA2D3 / RFU, DTX4 / Fold change vs veh, DTX4 / RFU, TFCP2 / Fold change vs veh, TFCP2 / RFU, GMCL1 /// GMCL1P1 / Fold change vs veh, GMCL1 /// GMCL1P1 / RFU, AEBP2 / Fold change vs veh, AEBP2 / RFU, SNHG1 /// SNORD22 /// SNORD25 /// SNORD26 /// SNORD27 /// SNORD28 /// SNORD29 /// SNORD31 / Fold change vs veh, SNHG1 /// SNORD22 /// SNORD25 /// SNORD26 /// SNORD27 /// SNORD28 /// SNORD29 /// SNORD31 / Fold change (Aza/veh), C12orf56 (ProbeSet 11735607_a_at) / Fold change (ACY-1035/veh), C12orf56 (ProbeSet 11735607_a_at) / Fold change (Aza/veh), FGFR1OP (ProbeSet 11751329_s_at) / Fold change (ACY-1035/veh), FGFR1OP (ProbeSet 11751329_s_at) / Fold change (Aza/veh), VPS36 (ProbeSet 11739960_a_at) / Fold change (ACY-1035/veh), VPS36 (ProbeSet 11739960_a_at) / RFU SYPL1 (11715823_x_at) / Fold change /veh SYPL1 (11715823_x_at) / RFU IGFBP7 (11715501_s_at) / Fold change /veh IGFBP7 (11715501_s_at) / RFU REEP3 (11722064_at) / Fold change /veh REEP3 (11722064_at) / RFU IGLL1 (11728026_x_at) / Fold change /veh IGLL1 (11728026_x_at): dose or concentration left out as unconfirmed
Conditions: ProbeSet 11724877_a_at; LIST D

Nc1ncn([C@@H]2O[C@H](CO)[C@@H](O)[C@H]2O)c(=O)n1 [azacitidine]
RFU, AEBP2: 23.96 RFU
